Measurements from PubChem BioAssay AID330 (DTP/NCI, 2004).
Inconclusive results and toxic doses are left out. Rule for the calls: active = survival T/C of 150% or more; inactive = T/C below 125% in these data.

Tested on: P388 leukemia ip, CD2F1 mice, survival T/C
Assay: NCI In Vivo Anticancer Drug Screen. Data for tumor model P388 Leukemia (intraperitoneal) in CD2F1 (CDF1) mice
Details: endpoint: median survival time, higher = longer survival
How it was run: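 Mice carrying the transplanted tumor received test compound or vehicle. Survival was recorded in each group, and the value is the treated-group measurement divided by that of the vehicle-treated control group.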

[1] = dose: 100.0 mg/kg/injection, schedule: Q01DX001 (ip), vehicle: saline with Tween-80
[2] = dose: 200.0 mg/kg/injection, schedule: Q01DX001 (ip), vehicle: saline with Tween-80
[3] = dose: 400.0 mg/kg/injection, schedule: Q01DX001 (ip), vehicle: saline with Tween-80
[4] = dose: 25.0 mg/kg/injection, schedule: Q01DX005 (ip), vehicle: saline with Tween-80
[5] = dose: 25.0 mg/kg/injection, schedule: Q01DX009 (ip), vehicle: saline with Tween-80
[6] = dose: 25.0 mg/kg/injection, schedule: Q01DX009 (ip), vehicle: Klucel (hydroxypropylcellulose) (HPC)
[7] = dose: 50.0 mg/kg/injection, schedule: Q01DX009 (ip), vehicle: saline with Tween-80
[8] = dose: 100.0 mg/kg/injection, schedule: Q01DX009 (ip), vehicle: saline with Tween-80
[9] = dose: 50.0 mg/kg/injection, schedule: Q01DX005 (ip), vehicle: saline with Tween-80
[10] = dose: 100.0 mg/kg/injection, schedule: Q01DX005 (ip), vehicle: saline with Tween-80
[11] = dose: 200.0 mg/kg/injection, schedule: Q01DX005 (ip), vehicle: saline with Tween-80

Measured: T/C

Cc1c([N+](=O)[O-])c(=O)oc2c(C)c3occc(=O)c3cc12
inactive: [1] 89 % of control | [2] 90 % of control | [3] 86 % of control

OC(COc1cccc2ccccc12)CN(CCCl)CCCl (configuration not stated)
inactive: dose: 1.25 mg/kg/injection, schedule: Q01DX009 (ip), vehicle: saline 122 % of control | dose: 20.0 mg/kg/injection, schedule: Q01DX009 (ip), vehicle: saline 91 % of control

CSC(SC)=C1C(=O)NC(Cc2ccccc2)C1=O (configuration not stated)
inactive: dose: 6.25 mg/kg/injection, schedule: Q01DX005 (ip), vehicle: saline with Tween-80 104 % of control | dose: 12.5 mg/kg/injection, schedule: Q01DX005 (ip), vehicle: saline with Tween-80 112 % of control | [4] 119 % of control

COc1cc(O)c(/C=N\O)c(OC)c1
inactive: dose: 60.0 mg/kg/injection, schedule: Q01DX005 (ip), vehicle: saline with Tween-80 96 % of control | dose: 120.0 mg/kg/injection, schedule: Q01DX005 (ip), vehicle: saline with Tween-80 98 % of control | dose: 240.0 mg/kg/injection, schedule: Q01DX005 (ip), vehicle: saline with Tween-80 98 % of control

Cn1c(-c2ccccc2)nc2ccccc2c1=O
inactive: dose: 6.25 mg/kg/injection, schedule: Q01DX009 (ip), vehicle: saline with Tween-80 95 % of control | dose: 12.5 mg/kg/injection, schedule: Q01DX009 (ip), vehicle: saline with Tween-80 101 % of control | [5] 101 % of control

CCOC(=O)/N=[N+](\[O-])c1ccc([N+](=O)[O-])cc1
inactive: dose: 100.0 mg/kg/injection, schedule: Q01DX001 (ip), vehicle: Klucel (hydroxypropylcellulose) (HPC) 95 % of control

COc1cc(C(=O)NCC(=O)NN=C(C)C)cc(OC)c1OC
inactive: dose: 50.0 mg/kg/injection, schedule: Q01DX005 (ip), vehicle: Klucel (hydroxypropylcellulose) (HPC) 104 % of control | dose: 100.0 mg/kg/injection, schedule: Q01DX005 (ip), vehicle: Klucel (hydroxypropylcellulose) (HPC) 95 % of control | dose: 200.0 mg/kg/injection, schedule: Q01DX005 (ip), vehicle: Klucel (hydroxypropylcellulose) (HPC) 107 % of control

O=C(N/N=C/c1cc(Br)cc(Br)c1[O-])c1ccccc1.O=C(N/N=C/c1cc(Br)cc(Br)c1[O-])c1ccccc1.[Fe+2]
inactive: [1] 86 % of control | [2] 86 % of control | [3] 93 % of control

O=C(N/N=c1/sc2ccccc2n1Cc1ccccc1)c1ccncc1
inactive: dose: 6.25 mg/kg/injection, schedule: Q01DX009 (ip), vehicle: Klucel (hydroxypropylcellulose) (HPC) 106 % of control | dose: 12.5 mg/kg/injection, schedule: Q01DX009 (ip), vehicle: Klucel (hydroxypropylcellulose) (HPC) 100 % of control | [6] 89 % of control

COC(=O)C(Cc1ccc(O)cc1)NS(=O)(=O)Cc1ccccc1 (configuration not stated)
inactive: [7] 107 % of control | [8] 96 % of control | dose: 200.0 mg/kg/injection, schedule: Q01DX009 (ip), vehicle: saline with Tween-80 99 % of control

CC(C)(O)[C@H]1[C@@H]2OC(=O)[C@H]1[C@]1(O)C[C@H]3OC34C(=O)O[C@H]2[C@@]41C (some centres not stated) (tested in a mixture with another compound)
inactive: dose: 0.25 mg/kg/injection, schedule: Q01DX009 (ip), vehicle: Klucel (hydroxypropylcellulose) (HPC) 99 % of control | dose: 0.5 mg/kg/injection, schedule: Q01DX009 (ip), vehicle: Klucel (hydroxypropylcellulose) (HPC) 113 % of control | dose: 1.0 mg/kg/injection, schedule: Q01DX009 (ip), vehicle: Klucel (hydroxypropylcellulose) (HPC) 100 % of control | dose: 2.0 mg/kg/injection, schedule: Q01DX009 (ip), vehicle: Klucel (hydroxypropylcellulose) (HPC) 96 % of control | [6] 99 % of control | dose: 50.0 mg/kg/injection, schedule: Q01DX009 (ip), vehicle: Klucel (hydroxypropylcellulose) (HPC) 105 % of control | dose: 100.0 mg/kg/injection, schedule: Q01DX009 (ip), vehicle: Klucel (hydroxypropylcellulose) (HPC) 106 % of control | dose: 200.0 mg/kg/injection, schedule: Q01DX009 (ip), vehicle: Klucel (hydroxypropylcellulose) (HPC) 96 % of control

CC(C)=CCC/C(C)=C\CN(C)C
inactive: dose: 6.25 mg/kg/injection, schedule: Q04DX002 (ip), vehicle: saline with Tween-80 100 % of control | dose: 12.5 mg/kg/injection, schedule: Q04DX002 (ip), vehicle: saline with Tween-80 103 % of control | dose: 25.0 mg/kg/injection, schedule: Q04DX002 (ip), vehicle: saline with Tween-80 94 % of control

C[n+]1c(-c2ccccc2)c2cc(N)ccc2c2ccc(N)cc21
inactive: dose: 1.56 mg/kg/injection, schedule: Q04DX003 (ip), vehicle: saline with Tween-80 106 % of control | dose: 3.13 mg/kg/injection, schedule: Q04DX003 (ip), vehicle: saline with Tween-80 107 % of control | dose: 6.25 mg/kg/injection, schedule: Q04DX003 (ip), vehicle: saline with Tween-80 118 % of control | dose: 25.0 mg/kg/injection, schedule: Q04DX003 (ip), vehicle: saline with Tween-80 124 % of control

CC(C)NC(=O)OCc1c(COC(=O)NC(C)C)c(S(=O)(=O)c2ccccc2)n2c1CCC2
inactive: [4] 89 % of control | [9] 86 % of control | [10] 90 % of control | [11] 93 % of control

NC(CO)C(O)c1ccc(N=Nc2ccc(O)cc2)cc1 (configuration not stated)
inactive: [5] 95 % of control | [7] 100 % of control | [8] 95 % of control

CC(=O)C1C(=O)C(=O)N(c2ccc(C)c(C)c2)C1=O (configuration not stated)
inactive: [9] 101 % of control | [10] 97 % of control | [11] 100 % of control

Nc1nc(-c2ccccc2)c(Br)c(=O)[nH]1
inactive: [10] 112 % of control | [11] 105 % of control | dose: 400.0 mg/kg/injection, schedule: Q01DX005 (ip), vehicle: saline with Tween-80 100 % of control

O=S1(=O)c2ccccc2N(c2ccccc2)c2nnc(COc3ccccc3)n21
inactive: [9] 90 % of control | [10] 88 % of control
